Where two headings read alike, the source gives them in different places.
What was measured:
Assay type in all cases: cell-based
T47D (ER+) [1] = experiment: Annexin V-FITC/PI apoptosis flow cytometry, T47D
Procedure: (§1) Induction of apoptosis was studied in a MCF7 breast cancer cell line. Apoptotic cells were detected using an Annexin V-FITC/PI apoptosis detection kit (Oncagene, Boston, Mass.). After plating at 5×10^5 in a 100-mm plate, the cells were grown for 48 hours in complete medium in presence of M1, ritonavir, or vehicle (DMSO). The culture and drug exposure conditions for the apoptosis assays were done across a range of 5 to 60 μmol/L M1 and ritonavir. Cells were harvested by trypsin treatment, washed with complete medium to neutralize the trypsin, and stained with PI and Annexin V-FITC. A total of 1×10^4 events were analyzed per assay by FACScan analysis using CellQuest software (Becton Dickinson). Replicate assays were done to confirm the results.
(§2) A similar study was performed using T47D (ER+), MDA-MB-231 (triple negative) and SKBR3 (ER−/Her2+) cell lines were performed as above.

T47D (ER+ line) = experiment: Western blot densitometry, T47D (Example 17); set-up: % Reduction, Total Akt / % Reduction, Phospho Akt / % Reduction, ER-α: concentration or dose not given beside the values; details: 24 or 48 hours
Procedure: An ER^+ line, T47D, was treated with M1 or ritonavir for 24 or 48 hours. The cells were grown to confluence and treated with drug or DMSO vehicle. The cells were scraped on ice into RIPA buffer containing protease inhibitors including MG-132 and phosphatase inhibitors as published (see Srirangam et al. Clincal Ca Research 2006). The RIPA lysate was subjected to electrophoresis, blotted and probed with the appropriate antibodies.

T47D (ER+) [2] = experiment: MTT proliferation assay, T47D; details: Homo sapiens
Procedure: (§3) Cells (n=2000/well) were seeded in 96 well plates with drug or vehicle (DMSO) on D1 and after 48 h the cell number was determined by MTT assay.

[3] = test system: non-transformed human breast epithelial line MCF10A; experiment: MTT proliferation assay, MCF10A; details: MCF-10A, 48 h
Procedure: M1 inhibition of proliferation of MCF7, T47D and MDA-MB-231 cell lines was studied. Cells (n=2000/well) were seeded in 96 well plates with drug or vehicle (DMSO) on D1 and after 48 h the cell number was determined by MTT assay. Each assay was performed with 8 measurements for each data point (See FIG. 1, wherein graph A corresponds to MCF7, graph B corresponds to T47D, and graph C corresponds to MDA-MB-231).
M1 inhibition of proliferation of MCF7 (ER+), T47D (ER+), MDA-MB-231 (triple negative), SKBR3 (ER−/Her2+), and the non-transformed mammary line MCF10A were studied. Cells (n=2000/well) were seeded in 96 well plates with drug or vehicle (DMSO) on D1 and after 48 h the cell number was determined by MTT assay.

SKBR3 = experiment: Western blot protein depletion, SKBR3 (Example 4)
Procedure: Breast cancer cell lines MDA-MB-231, T47D and SKBR3 were used to study depletion of Hsp90 by M1 and ritonavir. Cells were incubated for 48 hours with 1) ritonavir (R) at its IC50 (20 μM for T47D and 40 μM for MDA-MB-231); 2) M1 at ritonavir's IC50; or DMSO (control). Cell extracts were made according to the method of Srirangam et al., Clin Cancer Res. 2006 Mar. 15; 12(6):1883-96. Briefly, nearly confluent cell monolayers were treated with drug or vehicle (DMSO) for 24 or 48 h. Cells were washed with PBS on ice and scraped in a RIPA buffer containing protease inhibitors including MG-132 and phosphatase inhibitors. The cell lysate protein content was determined by μBCA and equal amounts of protein were loaded per lane. Gel electrophoresis by SDS PAGE was performed with equal protein loading per lane (usually 30 μg) and the separated proteins were transferred to 0.45 μm nitrocellulose filters. The transfer was verified by Ponceau stain of the nitrocellulose filters. The filters were probed by chemiluminescent blotting and then exposed to X-ray film. The signal from the protein of interest was normalized to the GAPDH signal. Student's t-test was used to determine the significance of differences.

[4] = test system: MDA-MB-231 (triple negative); experiment: MTT proliferation assay, MDA-MB-231; details: Homo sapiens
Procedure: as §3

MCF7 (ER+) = experiment: MTT proliferation assay, MCF7; details: Homo sapiens
Procedure: as §3

[5] = test system: MCF7 breast cancer cell line; experiment: Annexin V-FITC/PI apoptosis flow cytometry, MCF7; details: for early apoptotic cells: preliminary flow cytometry apoptosis studies; for UR % Late Apoptosis / LR % Early Apoptosis: 48 hours; for fraction of apoptotic cells (early, lower right quadrant): at the ritonavir IC50 (30 μM), FIG. 2
Procedure: Induction of apoptosis can be determined using the Annexin V-FITC/PI apoptosis detection kit (Oncagene, Boston, Mass.). For example, after plating at 5×10^5 in a 100-mm plate, cancer cells can be grown for 48 hours in complete medium in presence of a drug, including a compound or formula 1, and a control, such as vehicle (DMSO). The culture and drug exposure conditions for the apoptosis assays can be done across a range of 5 to 60 μmol/L drug. Cells can be harvested by trypsin treatment, washed with complete medium to neutralize the trypsin, and stained with PI and Annexin V-FITC. The events can then be analyzed using FACScan analysis and CellQuest software (Becton Dickinson). See Example 2.
as §1

[6] = test system: MDA-MB-231 (triple negative); experiment: Annexin V-FITC/PI apoptosis flow cytometry, MDA-MB-231
Procedure: as §1, §2

[7] = Example 6, MTT after 48 h, read-out: IC50, proliferation
[8] = Table 1, below the IC50 for both drugs, 45 μM
[9] = Table 3, at the ritonavir IC50, 30 μM
[10] = Table 4, above the IC50 for both drugs, 45 μM
[11] = as quoted in Example 4, read-out: IC50

SMILES | fraction of apoptotic cells (T47D (ER+) [1]) | % Reduction, CDK2 (T47D (ER+ line)) | % Reduction, CDK4 (T47D (ER+ line)) | % Reduction, CDK6 (T47D (ER+ line)) | % Reduction, Cyclin D1 (T47D (ER+ line)) | % Reduction, ER-α (T47D (ER+ line)) | % Reduction, Hsp90 (T47D (ER+ line)) | % Reduction, Phospho Akt (T47D (ER+ line)) | % Reduction, Total Akt (T47D (ER+ line)) | IC50 ([3]; Example 1, MTT after 48 h) | IC50 ([3]; Example 6, MTT after 48 h) | G1/S regulatory protein Cyclin D1 (SKBR3) | reducing Hsp90 levels (SKBR3) | early apoptotic cells ([5]; 45 μM) | UR % Late Apoptosis ([5]; Table 1, 45 μM) | LR % Early Apoptosis [5, 8] | LR % Early Apoptosis ([5]; Table 2, at the M1 IC50, 15 μM) | UR % Late Apoptosis ([5]; Table 2, at the M1 IC50, 15 μM) | LR % Early Apoptosis [5, 9] | UR % Late Apoptosis [5, 9] | further results
CC(C)c1nc(CN(C)C(=O)NC(C(=O)NC(Cc2ccccc2)CC(O)C(N)Cc2ccccc2)C(C)C)cs1 (stereo not drawn) [M1, desthiazolyl ritonavir] | 20% | 51.02% | 2.23% | 21.05% | 45.64% | 56.41% | 82.70% | 56.36% | 56.57% | 50 µM | 45 µM | reduced | neither drug reduced | 28% | 34.74% | 27.46% | 9.42% | 10.73% | 39.74% | 20.00% | IC50 (T47D (ER+) [2]; [7]): 10 µM; reducing total Akt, phospho-Akt, GSK3beta, c-src, and survivin (SKBR3; versus ritonavir, P<0.05): more potent; IC50 [4, 7]: 22 µM; IC50 (MCF7 (ER+); MCF7, Example 6, MTT after 48 h, read-out: IC50, proliferation): 15 µM; LR % Early Apoptosis [5, 10]: 31.95%; UR % Late Apoptosis [5, 10]: 21.31%; fraction of apoptotic cells (early, lower right quadrant) [5]: 32%; fraction of apoptotic cells [6]: 40%
CC(C)c1nc(CN(C)C(=O)N[C@H](C(=O)N[C@@H](Cc2ccccc2)C[C@H](O)[C@H](Cc2ccccc2)NC(=O)OCc2cncs2)C(C)C)cs1 [ritonavir] | 13% | 49.91% | 23.99% | 11.64% | 42.87% | 33.24% | 48.3% | 9.98% | 5.04% | 35 µM | 31 µM | only M1 reduced | neither drug reduced | 14% | 23.0% | 14.12% | 13.83% | 11.16% | 15.11% | 7.95% | IC50 (T47D (ER+) [2]; 48 h, read-out: IC50, proliferation): 23 µM; IC50 (T47D (ER+) [2]; [11]): 20 µM; IC50 [4, 11]: 40 µM; IC50 (MCF7 (ER+); MCF7, 48 h, read-out: IC50, proliferation): 28 µM; IC50 (MCF7 (ER+); MCF7, as quoted in Example 2, read-out: IC50): 30 µM; LR % Early Apoptosis [5, 10]: 17.10%; UR % Late Apoptosis [5, 10]: 7.30%; fraction of apoptotic cells (early, lower right quadrant) [5]: 17%; fraction of apoptotic cells [6]: 20%
